Reference: US20070129357A1, “Novel crystals of fluorobenzamide derivative” (priority 2003, published 2007)
“Also recorded” adds a separate entry of the source.

Tests used:
[1] = Hygroscopicity of the crystals (FIG. 5 and FIG. 6); assay type: physicochemical; settings: crystal forms of compound A compared, FIG. 5 (α-type, Example 3) and FIG. 6 (β-type, Example 2); monophosphate
If current = settings: stated as known from WO 00/75133; cited from earlier work

COc1cc2c(cc1OC)CN(C(=O)[C@@H]1CCCN(CCNC(=O)c3ccc(F)cc3)C1)CC2.O=P(O)(O)O [α-type crystal, (−)-N-{2-[(R)-3-(6,7-dimethoxy-1,2,3,4-tetrahydroisoquinoline-2-carbonyl)piperidino]ethyl}-4-fluorobenzamide monophosphate]
melting point: 203.8 to 204.7 °C | hygroscopicity [1]: particularly good hygroscopicity; also recorded: superior to the β-type crystal in terms of hygroscopicity

COc1cc2c(cc1OC)CN(C(=O)[C@@H]1CCCN(CCNC(=O)c3ccc(F)cc3)C1)CC2.O=P(O)(O)O [β-type crystal, (−)-N-{2-[(R)-3-(6,7-dimethoxy-1,2,3,4-tetrahydroisoquinoline-2-carbonyl)piperidino]ethyl}-4-fluorobenzamide monophosphate]
melting point: 195.5 to 196.3 °C

COc1cc2c(cc1OC)CN(C(=O)[C@@H]1CCCN(CCNC(=O)c3ccc(F)cc3)C1)CC2.O=P(O)(O)O [compound A, (−)-N-{2-[(R)-3-(6,7-dimethoxy-1,2,3,4-tetrahydroisoquinoline-2-carbonyl)piperidino]ethyl}-4-fluorobenzamide monophosphate]
inhibitory action for If current (If current): inhibitory action for If current
